# Experimental data from publication PMC3610419, “A Randomized, Double-Blind Placebo Controlled Trial of Balapiravir, a Polymerase Inhibitor, in Adult Dengue Patients” (The Journal of Infectious Diseases, 2012).
# “Also recorded” adds a separate entry of the source.
# Assays:
# [1] = test system: DENV; assay: Plasma viremia (RT-PCR) in adult dengue patients, randomized placebo-controlled trial; format: in vivo, human; settings: for Median time to first viremia level of <1000 copies/mL (IQR): Kaplan-Meier estimate, inpatient period; for AUC viremia, Mean / AUC viremia, Median (IQR): hour 0 to hour 168
# Protocol: Plasma samples were collected for virological and immunological investigations every 12 hours, beginning immediately before commencement of treatment, during the next 6 study days and on one occasion on study day 7 and day 14 (virological markers) or day 7 and day 28 (immunological markers). Viremia was measured using a validated, internally controlled reverse-transcription polymerase chain reaction assay in a Good Clinical Laboratory Practice environment. The limit of detection was 357 copies/mL for DENV-1, 72 copies/mL for DENV-2, 357 copies/mL for DENV-3, and 720 copies/mL for DENV-4. The presence of NS1 in plasma was determined using the Platelia NS1 assay (Bio-Rad) and was performed according to the manufacturer's instructions. Plasma cytokine levels (interleukin 1β [IL-1β], IL-2, IL-4, IL-5, IL-6, IL-10, IL-12p70, IL-13, interferon γ [IFN-γ], and tumor necrosis factor α [TNF-α]) were measured using a Bio-Plex human cytokine assay (Bio-Rad) and a multiplex array reader (Luminex Systems, Bio-Plex workstation from Bio-Rad Laboratories) according to the manufacturer's instructions. Briefly, 50-μL plasma samples were incubated with monoclonal antibody coupled beads. Complexes were washed twice, then incubated with biotinylated detection antibodies and, finally, labeled with streptavidin-phycoerythrin prior to analysis. Cytokine concentrations in samples were calculated by use of recombinant cytokines as standards and software provided by the manufacturer (Bio-Plex Manager). All research samples (for pharmacology, virology, and immunology) were collected and processed in the laboratory within 1 hour of venupuncture. All virological and immunological measurements and analyses were performed by analysts who were blind to the treatment assignment
# (§1) Key viremia endpoints of the study were as follows: area under the log-transformed viremia curve (AUC) from first dose to the end of study day 7 (study hour 168), calculated on the basis of the trapezoidal rule with values below the limit of detection replaced by half of the detection limit; time to first viremia level of <1000 copies/mL until study day 7; and time to the first negative NS1 test result. Other predefined key endpoints included fever clearance time, defined as the time from the start of treatment to the start of the first 48-hour period during which axillary temperature remained <37.5°C; maximum hematocrit level; maximum percentage increase of hematocrit level from baseline; platelet count nadir; and lowest recorded quality of life score.
# (§2) Time to event endpoints were compared between treatment groups on the basis of Cox regression and continuous endpoints on the basis of linear regression. Analyses were adjusted for the predose value of the respective endpoint; viremia and NS1 endpoints were additionally adjusted for dengue serotype. For all endpoints, we report P values of a trend test for a dose-response relationship with treatment entered as a continuous variable with values 0 (placebo), 1 (low-dose), and 2 (high-dose) into the regression model.
# [2] = test system: HCV; settings: cited from earlier work
# [3] = Predefined clinical and routine laboratory endpoints in adult dengue patients; format: in vivo, human; settings: for Maximum percentage increase of hematocrit level, Mean / Maximum percentage increase of hematocrit level, Median (IQR): from baseline; for Minimum quality of life score, Mean / Minimum quality of life score, Median (IQR): visual analogue scale 0-100
# Source text: as §1, §2
# [4] = 1500 mg or 3000 mg twice daily for 5 days versus placebo
# [5] = High-dose (3000 mg twice a day, 5 days), n = 22
# [6] = Low-dose (1500 mg twice a day, 5 days), n = 10
smiles,measurement,setting,value
CC(C)C(=O)OC[C@@]1(N=[N+]=[N-])O[C@@H](n2ccc(N)nc2=O)[C@H](OC(=O)C(C)C)[C@@H]1OC(=O)C(C)C [Balapiravir],"effect on virological markers (time to clearance of viremia, time to clearance of NS1 antigenemia, AUC)",[1]; [4],did not measurably alter; also recorded: no measurable effect
same,Median time to first viremia level of <1000 copies/mL (IQR),[1]; [5],4 (3–5) d
same,"AUC viremia, Mean",[1]; [5],32.56 log10 copies/mL × d
same,"AUC viremia, Median (IQR)",[1]; [5],31.98 (27.60–34.98) log10 copies/mL × d
same,Median time to first viremia level of <1000 copies/mL (IQR),[1]; [6],"5 (4, NA) d"
same,"AUC viremia, Mean",[1]; [6],34.49 log10 copies/mL × d
same,"AUC viremia, Median (IQR)",[1]; [6],29.63 (27.41–39.86) log10 copies/mL × d
same,antiviral effect (reduction in plasma HCV RNA level),[2]; 500 mg twice daily,no significant antiviral effect
same,clinical safety in extended courses,"[2]; extended courses (2–3 months) in conjunction with pegylated interferon and ribavirin, HCV infection",clinical safety signals were detected
same,effect on plasma HCV levels,"[2]; monotherapy twice per day for 14 days, chronic HCV",reduced plasma HCV levels in a dose- and time-dependent manner
same,tolerability,"[2]; monotherapy twice per day for 14 days, doses up to 3000 mg, adult male patients",well-tolerated
same,"effect on fever clearance time, clinical signs and routine laboratory findings",[3]; [4],did not affect
same,"Maximum ALT level, Mean",[3]; [5],75.2 IU/L
same,"Maximum ALT level, Median (IQR)",[3]; [5],68.5 (33.3–104.5) IU/L
same,"Maximum AST level, Mean",[3]; [5],118.4 IU/L
same,"Maximum AST level, Median (IQR)",[3]; [5],108.0 (45.0–151.5) IU/L
same,"Maximum INR, Mean",[3]; [5],1.27
same,"Maximum INR, Median (IQR)",[3]; [5],1.17 (1.09–1.22)
same,"Maximum aPTT, Mean",[3]; [5],41.8 s
same,"Maximum aPTT, Median (IQR)",[3]; [5],41.8 (38.3–44.1) s
same,"Maximum recorded hematocrit level, Mean",[3]; [5],44.6%
same,"Maximum recorded hematocrit level, Median (IQR)",[3]; [5],45.1 (41.8–46.1) %
same,Median fever clearance time (IQR),[3]; [5],3 (2–4) d
same,"Minimum fibrinogen level, Mean",[3]; [5],1.88 g/L
same,"Minimum fibrinogen level, Median (IQR)",[3]; [5],1.86 (1.60–2.03) g/L
same,"Minimum platelet count, Mean",[3]; [5],54.4 10^9 cells/L
same,"Minimum platelet count, Median (IQR)",[3]; [5],52 (25.5–64.8) 10^9 cells/L
same,"Maximum percentage increase of hematocrit level, Mean",[3]; [5],2.6%
same,"Maximum percentage increase of hematocrit level, Median (IQR)",[3]; [5],1.2 (−4.1–9.2) %
same,"Minimum quality of life score, Mean",[3]; [5],74.45
same,"Minimum quality of life score, Median (IQR)",[3]; [5],77.5 (67.8–82.0)
same,"Maximum ALT level, Mean",[3]; [6],96.3 IU/L
same,"Maximum ALT level, Median (IQR)",[3]; [6],97.5 (58.0–128.8) IU/L
same,"Maximum AST level, Mean",[3]; [6],143.6 IU/L
same,"Maximum AST level, Median (IQR)",[3]; [6],157.5 (116.5–171.5) IU/L
same,"Maximum INR, Mean",[3]; [6],1.17
same,"Maximum INR, Median (IQR)",[3]; [6],1.16 (1.05–1.26)
same,"Maximum aPTT, Mean",[3]; [6],41.3 s
same,"Maximum aPTT, Median (IQR)",[3]; [6],40.6 (39.6–43.1) s
same,"Maximum recorded hematocrit level, Mean",[3]; [6],46.7%
same,"Maximum recorded hematocrit level, Median (IQR)",[3]; [6],45.8 (43.8–49.3) %
same,Median fever clearance time (IQR),[3]; [6],3 (2–4) d
same,"Minimum fibrinogen level, Mean",[3]; [6],1.94 g/L
same,"Minimum fibrinogen level, Median (IQR)",[3]; [6],2.08 (1.68–2.25) g/L
same,"Minimum platelet count, Mean",[3]; [6],26.3 10^9 cells/L
same,"Minimum platelet count, Median (IQR)",[3]; [6],23 (16.5–33.0) 10^9 cells/L
same,"Maximum percentage increase of hematocrit level, Mean",[3]; [6],11.5%
same,"Maximum percentage increase of hematocrit level, Median (IQR)",[3]; [6],11.8 (3.1–15.3) %
same,"Minimum quality of life score, Mean",[3]; [6],78.3
same,"Minimum quality of life score, Median (IQR)",[3]; [6],77.0 (69.8–89.0)
